The values below come from ChEMBL document CHEMBL4138232, “O2-(2,4-dinitrophenyl)diazeniumdiolates derivatives: Design, synthesis, cytotoxic evaluation and reversing MDR in MCF-7/ADR cells” (Eur J Med Chem, 2018).

T1 sequence (P09211 whole entry): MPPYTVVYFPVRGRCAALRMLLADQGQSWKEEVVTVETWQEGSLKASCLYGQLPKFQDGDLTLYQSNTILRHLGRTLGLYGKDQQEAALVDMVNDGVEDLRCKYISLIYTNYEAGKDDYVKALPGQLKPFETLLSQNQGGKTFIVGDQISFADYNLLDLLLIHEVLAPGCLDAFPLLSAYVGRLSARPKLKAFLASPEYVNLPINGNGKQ

The subject of one data set is A549. The experiment in a line: Antiproliferative activity against human A549 cells after 48 hrs by MTT assay relative to control. Type of data set: functional, cell-based. The conditions noted are these: A549, 48 h. (Formazan colour is commonly taken as a measure of viable cells.)
Turning to `Cc1ccc(/C=C/C(=O)c2cccc(Oc3cc(O/N=[N+](\[O-])N4CCOCC4)c([N+](=O)[O-])cc3[N+](=O)[O-])c2)cc1`, the IC50 (commonly the concentration that gives 50% inhibition) was found to be 3.15 µM.

In turn, `COc1ccc(/C=C/C(=O)c2cccc(Oc3cc(O/N=[N+](\[O-])N4CCOCC4)c([N+](=O)[O-])cc3[N+](=O)[O-])c2)cc1OC` yielded a 50% inhibitory concentration (IC50) of 5.99 µM.

A further data set has as its system MCF-10A. The experiment in a line: Antiproliferative activity against human MCF10A cells after 48 hrs by MTT assay relative to control.
Details: not given
The format is cell-based.
Consider `Cc1ccc(/C=C/C(=O)c2cccc(Oc3cc(O/N=[N+](\[O-])N4CCOCC4)c([N+](=O)[O-])cc3[N+](=O)[O-])c2)cc1`, for which the IC50 turned out to be 44.7 µM.

`COc1ccc(/C=C/C(=O)c2cccc(Oc3cc(O/N=[N+](\[O-])N4CCOCC4)c([N+](=O)[O-])cc3[N+](=O)[O-])c2)cc1OC` yielded a half-maximal inhibitory concentration (IC50) of 62.1 µM.

Tested on in the next data set: not listed separately
The experiment in a line: Selectivity ratio of IC50 for human U2OS cells to IC50 for human MDA-MB-231 cells.
Details: not given
Type of data set: functional.
Take `Cc1ccc(/C=C/C(=O)c2cccc(Oc3cc(O/N=[N+](\[O-])N4CCOCC4)c([N+](=O)[O-])cc3[N+](=O)[O-])c2)cc1`: the “Ratio IC50” value is given as 2.6.

As for `COc1ccc(/C=C/C(=O)c2cccc(Oc3cc(O/N=[N+](\[O-])N4CCOCC4)c([N+](=O)[O-])cc3[N+](=O)[O-])c2)cc1OC`, the “Ratio IC50” value turned out to be 0.9.

The test system of a further data set is MCF7. As to the kind of experiment: Cytotoxicity against ADR-sensitive human MCF7 cells assessed as inhibition of cell viability after 48 hrs by MTT assay. Type of data set: cell-based. The settings on record: MCF7, 48 h.
For the compound `Cc1ccc(/C=C/C(=O)c2cccc(Oc3cc(O/N=[N+](\[O-])N4CCOCC4)c([N+](=O)[O-])cc3[N+](=O)[O-])c2)cc1`, the IC50 was 18.8 µM.

As to `COc1ccc(/C=C/C(=O)c2cccc(Oc3cc(O/N=[N+](\[O-])N4CCOCC4)c([N+](=O)[O-])cc3[N+](=O)[O-])c2)cc1OC`, the IC50 turned out to be 28.3 µM.

Another data set concerns U2OS. The experiment in a line: Antiproliferative activity against human U2OS cells after 48 hrs by MTT assay relative to control. The format is functional, cell-based.
Details: not given
In turn, `Cc1ccc(/C=C/C(=O)c2cccc(Oc3cc(O/N=[N+](\[O-])N4CCOCC4)c([N+](=O)[O-])cc3[N+](=O)[O-])c2)cc1` had an IC50 of 5.26 µM.

On to `COc1ccc(/C=C/C(=O)c2cccc(Oc3cc(O/N=[N+](\[O-])N4CCOCC4)c([N+](=O)[O-])cc3[N+](=O)[O-])c2)cc1OC`, for which the IC50 was determined as 5.77 µM.

A further data set relates to HCT-116. As to the kind of experiment: Cytotoxicity against human HCT116 cells overexpressing GST-Pi assessed as inhibition of cell viability at 10 uM after 48 hrs by MTT assay relative to control. Type of data set: functional. The settings on record: HCT-116, 48 h.
`Cc1ccc(/C=C/C(=O)c2cccc(Oc3cc(O/N=[N+](\[O-])N4CCOCC4)c([N+](=O)[O-])cc3[N+](=O)[O-])c2)cc1`: the inhibition (as a rule, the percentage by which the read-out fell short of the control) at 10 µM came out at 61.2%.

On to `COc1ccc(/C=C/C(=O)c2cccc(Oc3cc(O/N=[N+](\[O-])N4CCOCC4)c([N+](=O)[O-])cc3[N+](=O)[O-])c2)cc1OC`, for which the inhibition at 10 µM came to 75.6%.

Tested on in the next data set: not listed separately
The experiment in a line: Selectivity ratio of IC50 for human MCF10A cells to IC50 for human MDA-MB-231 cells. The format is toxicity. The conditions noted are these: MCF10A cells versus MDA-MB-231 cells, read-out: Ratio IC50.
Turning to `Cc1ccc(/C=C/C(=O)c2cccc(Oc3cc(O/N=[N+](\[O-])N4CCOCC4)c([N+](=O)[O-])cc3[N+](=O)[O-])c2)cc1`, the selectivity ratio came to 22.

Consider `COc1ccc(/C=C/C(=O)c2cccc(Oc3cc(O/N=[N+](\[O-])N4CCOCC4)c([N+](=O)[O-])cc3[N+](=O)[O-])c2)cc1OC`, for which the selectivity ratio is 10.2.

A further data set relates to MDA-MB-231. As to the kind of experiment: Antiproliferative activity against human MDA-MB-231 cells after 48 hrs by MTT assay relative to control. The format is functional, cell-based. The conditions noted are these: MDA-MB-231, 48 h.
Compound `Cc1ccc(/C=C/C(=O)c2cccc(Oc3cc(O/N=[N+](\[O-])N4CCOCC4)c([N+](=O)[O-])cc3[N+](=O)[O-])c2)cc1` showed an IC50 of 2.03 µM.

In the case of `COc1ccc(/C=C/C(=O)c2cccc(Oc3cc(O/N=[N+](\[O-])N4CCOCC4)c([N+](=O)[O-])cc3[N+](=O)[O-])c2)cc1OC`, inhibition was half-maximal at 6.1 µM (IC50).

Tested on in another data set: not listed separately
The experiment in a line: Selectivity ratio of IC50 for human A549 cells to IC50 for human MDA-MB-231 cells.
Details: not given
The format is functional.
In the case of `Cc1ccc(/C=C/C(=O)c2cccc(Oc3cc(O/N=[N+](\[O-])N4CCOCC4)c([N+](=O)[O-])cc3[N+](=O)[O-])c2)cc1`, the “Ratio IC50” value stood at 1.5.

With `COc1ccc(/C=C/C(=O)c2cccc(Oc3cc(O/N=[N+](\[O-])N4CCOCC4)c([N+](=O)[O-])cc3[N+](=O)[O-])c2)cc1OC`, the “Ratio IC50” value worked out at 1.

A further data set concerns the target T1, Glutathione S-transferase P (Homo sapiens, UniProt P09211). As to the kind of experiment: Prodrug activation in human HCT116 cells assessed as GST-Pi-mediated NO release at 5 uM after 24 hrs in presence of GST-Pi inhibitor etacrynic acid by nitrate reductase assay. Type of data set: cell-based.
Details: not given
`Cc1ccc(/C=C/C(=O)c2cccc(Oc3cc(O/N=[N+](\[O-])N4CCOCC4)c([N+](=O)[O-])cc3[N+](=O)[O-])c2)cc1`: the Drug metabolism entry is given as “Metabolite_Notdetected”.

On to `COc1ccc(/C=C/C(=O)c2cccc(Oc3cc(O/N=[N+](\[O-])N4CCOCC4)c([N+](=O)[O-])cc3[N+](=O)[O-])c2)cc1OC`, for which the Drug metabolism entry was “Metabolite_Notdetected”.

Another data set has as its target T1, Glutathione S-transferase P. As to the kind of experiment: Prodrug activation in human HCT116 cells assessed as GST-Pi-mediated NO release at 5 uM after 24 hrs in presence of NO scavenger carboxy-PTIO by nitrate reductase assay. Type of data set: cell-based.
Details: not given
Regarding `Cc1ccc(/C=C/C(=O)c2cccc(Oc3cc(O/N=[N+](\[O-])N4CCOCC4)c([N+](=O)[O-])cc3[N+](=O)[O-])c2)cc1`, the Drug metabolism result is “Metabolite_Notdetected”.

With `COc1ccc(/C=C/C(=O)c2cccc(Oc3cc(O/N=[N+](\[O-])N4CCOCC4)c([N+](=O)[O-])cc3[N+](=O)[O-])c2)cc1OC`, the Drug metabolism result was “Metabolite_Notdetected”.

For a further data set, the system named is HCT-116. The experiment in a line: Antiproliferative activity against human HCT116 cells after 48 hrs by MTT assay relative to control. Type of data set: functional, cell-based. The settings on record: HCT-116, 48 h.
In turn, `Cc1ccc(/C=C/C(=O)c2cccc(Oc3cc(O/N=[N+](\[O-])N4CCOCC4)c([N+](=O)[O-])cc3[N+](=O)[O-])c2)cc1` displayed an IC50 of 4.08 µM.

Compound `COc1ccc(/C=C/C(=O)c2cccc(Oc3cc(O/N=[N+](\[O-])N4CCOCC4)c([N+](=O)[O-])cc3[N+](=O)[O-])c2)cc1OC` gave a half-inhibitory concentration (IC50) of 4.59 µM.

The next data set has as its target T1, Glutathione S-transferase P. As to the kind of experiment: Prodrug activation in human HCT116 cells assessed as GST-Pi-mediated NO release at 5 uM after 24 hrs by nitrate reductase assay. Type of data set: cell-based.
Details: not given
With `COc1ccc(/C=C/C(=O)c2cccc(Oc3cc(O/N=[N+](\[O-])N4CCOCC4)c([N+](=O)[O-])cc3[N+](=O)[O-])c2)cc1OC`, the Drug metabolism entry is on record as “Metabolite_Detected”.

Tested on in a further data set: not listed separately
As to the kind of experiment: Cytotoxicity against ADR-sensitive human MCF7 cells assessed as inhibition of cell viability at 10 uM after 48 hrs by MTT assay relative to control. Type of data set: cell-based. The settings on record: read-out: INH.
Turning to `Cc1ccc(/C=C/C(=O)c2cccc(Oc3cc(O/N=[N+](\[O-])N4CCOCC4)c([N+](=O)[O-])cc3[N+](=O)[O-])c2)cc1`, the cytotoxicity at 48 h, 10 µM was found to be 21.3%.

On to `COc1ccc(/C=C/C(=O)c2cccc(Oc3cc(O/N=[N+](\[O-])N4CCOCC4)c([N+](=O)[O-])cc3[N+](=O)[O-])c2)cc1OC`, for which the cytotoxicity at 48 h, 10 µM came to 18%.

For the next data set, the species on record is Homo sapiens. The experiment in a line: Inhibition of MDR in human MCF7/ADR cells assessed as potentiation of adriamycin-induced antiproliferative activity by measuring fold reduction in adriamycin IC50 at 10 uM after 48 hrs by MTT assay. The format is cell-based.
Details: not given
Take `Cc1ccc(/C=C/C(=O)c2cccc(Oc3cc(O/N=[N+](\[O-])N4CCOCC4)c([N+](=O)[O-])cc3[N+](=O)[O-])c2)cc1`: the fold change (FC) was 46.9.

For the compound `COc1ccc(/C=C/C(=O)c2cccc(Oc3cc(O/N=[N+](\[O-])N4CCOCC4)c([N+](=O)[O-])cc3[N+](=O)[O-])c2)cc1OC`, the fold change (FC) is 66.3.

Tested on in another data set: not listed separately
The experiment in a line: Selectivity ratio of IC50 for human HCT116 cells to IC50 for human MDA-MB-231 cells. The format is functional.
Details: not given
For the compound `Cc1ccc(/C=C/C(=O)c2cccc(Oc3cc(O/N=[N+](\[O-])N4CCOCC4)c([N+](=O)[O-])cc3[N+](=O)[O-])c2)cc1`, the “Ratio IC50” value amounted to 2.

For the compound `COc1ccc(/C=C/C(=O)c2cccc(Oc3cc(O/N=[N+](\[O-])N4CCOCC4)c([N+](=O)[O-])cc3[N+](=O)[O-])c2)cc1OC`, the “Ratio IC50” value is 0.7.
